Measured values taken from PMC8404199, “Structure–Activity Relationships of Triple-Action Platinum(IV) Prodrugs with Albumin-Binding Properties and Immunomodulating Ligands” (Journal of Medicinal Chemistry, 2021).

Key:
[1] = test system: Treg differentiation; assay: Treg differentiation assay in human PBMC/SKOV3 co-culture; type: cell-based; details: 50 μM, 5 days, PBMC from three donors co-cultured with SKOV3
Description: PBMCs were thawed and slowly dropped into warm medium at a rate of 1 drop/5 s. PBMCs were then centrifuged (10 min, 400g) and washed with warm AIM V medium (12055091, Thermo Fisher Scientific, Massachusetts, USA). PBMCs were co-cultured with SKOV3 at a ratio of 2:1 (PBMC/SKOV3) in 12-well CytoOne plates (CC7682-7512, Starlab, Hamburg, Germany). In the presence of IL-2 (SRP3085, Merck, Darmstadt, Germany) at a concentration of 80 ng per 10^6, PBMCs were added. To induce Treg differentiation, OKT3 monoclonal CD3 antibody (317302, BioLegend, California, USA) and TGF-β1 CHO (AF-100-21C-10 μg, Eubio, Vienna, Austria) were added at concentrations of 4 μg and 10 ng per 10^6 PBMC, respectively. […] After 3 days, 250 μL of fresh AIM V medium was added, and cells were incubated for another two days. On the day of measurement, supernatant, containing PBMC, was collected.
Cells were washed with PBS and stained using the Aqua Zombie Fixable Viability Kit (423101, BioLegend, California, USA), according to the manufacturer’s instructions. Cells were then stained with fluorescent dye-labeled antibodies, according to the manufacturer’s instructions (Table S7). […] The cleaned up data were analyzed using the gating strategy, as shown in Figure S15 for murine tissue and Figure S16 for human co-culture experiment.

[2] = test system: HCT116 cells; assay: Cell cycle analysis in HCT116 cells; type: cell-based, human; details: HCT116, 50 µM, 24 h, 5-fold excess AA
Description: The cells were seeded at 600,000 cells/well in six-well plates and allowed to recover for 24 h. On the next day, cells were exposed to the compounds for 24 h, then trypsinized, and collected. Subsequently, cells were washed with PBS and centrifuged (400g, 5 min), and the cell pellet was resuspended in 100 μL of 0.9% NaCl solution. The cell suspension was then added dropwise to 1.8 mL of ice-cold 80% ethanol and incubated for 48 h at −20 °C. The fixated cells were centrifuged (6200g, 2 min), and the cell pellet was diluted in 0.5 mL of PBS with 0.1 mg/mL RNAse A (R5503, Merck, Darmstadt, Germany), which was previously heat-activated (10 min at 96 °C), and samples were incubated for 30 min at 37 °C to remove RNA content. Next, to stain DNA, propidium iodide (81845, Merck, Darmstadt, Germany) at a concentration of 5 μg/mL was added, samples were incubated for 30 min on ice and subsequently measured by flow cytometry.

[3] = test system: phosphorylation of histone H2A.X at position Ser139; assay: pH2AX signal detection in HCT116 cells; type: cell-based, human; details: HCT116, 50 µM, 24 h, 5-fold excess AA
Description: HCT116 cells were seeded on polytetrafluoroethylene-printed spot slides (E63424-06, Science Services GmbH, Munich, Germany) at a density of 4000 cells/spot. On the next day, cells were exposed to the compounds for 24 h, at 50 μM and fixed in a 4% formaldehyde solution in phosphate-buffered saline (PBS) with a pH adjusted to 7.4 (158127, Merck, Darmstadt, Germany) for 15 min at RT. Spots were washed thrice with PBS each for 5 min, and samples were then incubated in a blocking buffer [PBS, 5% albumin (Carl Roth, Karlsruhe, Germany), 0.3% Triton X-100 (T8787, Merck, Darmstadt, Germany)] for 1 h at RT. […] Next, samples were incubated with rhodamine-labeled wheat germ agglutinin (RL-1022, Vector Laboratories, California, USA) at a concentration for 5 μg/mL for 15 min at RT, and spots were washed twice in PBS, embedded in vectashield mounting medium with DAPI (VECH-1200, Szabo-Scandic, Vienna, Austria), and analyzed using a LSM700 confocal microscope (Zeiss Axio Observer.Z1, inverse, 63× plan-apochromat NA 1.4 Oil DIC objective). […] Images were analyzed using ImageJ software. […] Then, Alexa Fluor 488 signal (integrated density) was measured and normalized to nuclear area.

[4] = UHPLC reduction kinetics with dithiothreitol; type: physicochemical; details: 1 mM complex, 10 mM DTT, 1% DMF, 500 mM phosphate buffer pH 7.4, 20 °C
Description: Figure S 3: Reduction kinetics of reference compounds with AA at 20°C , measured by UHPLC and UV absorption at 220 nm. A: Comparison of OAc/IPAEs with amino -group containing SucCa/IdoEs; B:
Reductive stability of reference compounds with no 1MDT -like ligand. AUC-values were normalized to t = 0. Experimental conditions: 1 mM complex, 10 mM AA in 1% DMF and 500 mM phosphate buffer […]
conditions: 1 mM complex, 10 mM DTT in 1% DMF and 500 mM phosphate buffer (pH 7.4). […]

Compound | Treg differentiation (frequency of Treg in CD4+ T cells) [1] | fraction of cells in G2/M phase upon reduction by AA [2] | pH2A.X signals upon reduction by AA [3] | reduction in the presence of dithiothreitol (in words) [4]
Cn1cc(C[C@@H](NC(=O)[O][Pt]2([O]C(=O)CCCCCN3C(=O)CCC3=O)[O]C(=O)C(=O)[O]2)C(=O)O)c2ccccc21.N[C@@H]1CCCC[C@H]1N [SucEs/IdoCa] | significantly reduced Treg differentiation | – | – | –
Cn1cc(C[C@@H]([NH3+])C(=O)[O][Pt]2([O]C(=O)CCCCCN3C(=O)CCC3=O)[O]C(=O)C(=O)[O]2)c2ccccc21.N[C@@H]1CCCC[C@H]1N.O=C([O-])C(F)(F)F [SucEs/IdoEs, (OC-6-44)-[(R)-2-Ammonio-3-(1-methyl-1H-indol-3-yl)propanoato][(1R,2R)-1,2-cyclohexanediamino][6-(2,5-dioxopyrrolidin-1-yl)hexanoato]oxalatoplatinum(IV) Trifluoroacetate] | – | increased fraction of cells in the G2/M phase | increased pH2A.X signals | –
Cn1cc(CC([NH3+])C(=O)[O][Pt]23([O]C(=O)NCCCCCN4C(=O)CCC4=O)([NH]C4CCCCC4[NH]2)[O]C(=O)C(=O)[O]3)c2ccccc21.O=C([O-])C(F)(F)F [SucCa/IdoEs, (OC-6-34)-[(R)-2-Ammonio-3-(1-methyl-1H-indol-3-yl)propanoato][(1R,2R)-1,2-cyclohexanediamino][5-(2,5-dioxo-2,5-dihydro-1H-pyrrolidin-1-yl)pentylcarbamato]oxalatoplatinum(IV) Trifluoroacetate] | – | increased fraction of cells in the G2/M phase | increased pH2A.X signals | readily reduced
